# Earlier results as cited in US20100055040A1, “Optical Imaging Contrast Agents” (priority 2005, published 2010).
# Key:
# ulcerated gastric mucosa = settings: humans; ulcerated vs unulcerated gastric mucosa
# [1] = gastrointestinal tract
substance,measurement,setting,value
"α-D-glucopyranoside, β-D-fructofuranosyl-, octakis-(hydrogen sulfate), aluminum complex [Sucralfate]",times more sucralfate binds to ulcerated gastric mucosa than to unulcerated mucosa,ulcerated gastric mucosa,six to seven
same,absorption by the body,[1],only minimally absorbed
